From ChEMBL document CHEMBL1146249, “Antiviral 2,5-disubstituted imidazo[4,5-c]pyridines: further optimization of anti-hepatitis C virus activity” (Bioorg Med Chem Lett, 2007)

What was measured:
[1] = Selectivity index, ratio of CC50 for Huh 5-2 cells to EC50 for HCV; type: functional
[2] = system: Bovine viral diarrhea virus 1; assay: Antiviral activity against BVDV in MDBK cells; type: functional, organism-based; details: Bovine viral diarrhea virus isolates and strains
[3] = Selectivity index, ratio of CC50 for MDBK cells to EC50 for BVDV; type: functional
[4] = Cytotoxicity against MDBK cells; type: cell-based, Bos taurus; details: cattle
[5] = Cytotoxicity against Huh 5-2 cells; type: cell-based; details: human
[6] = system: Hepatitis C virus; assay: Antiviral activity against HCV in Huh 5-2 cells; type: functional, organism-based, Hepacivirus hominis

Row | SMILES | Ratio CC50/EC50 [1] | EC50 [2] [µM] | Ratio CC50/EC50 [3] | CC50 [4] [µM] | CC50 [5] [µM] | EC50 [6] [µM]
1 | Fc1ccccc1-c1nc2ccn(CCOc3ccccc3)cc-2n1 | 2 | 0.28 | >371 | > 104 | 96 | 48
2 | Fc1cccc(-c2nc3ccn(Cc4ccc(OC(F)(F)F)cc4)cc-3n2)c1F | 405 | 0.2 | >500 | > 100 | 81 | 0.2
